Values joined by “and” are separate entries in the source; they are usually repeats but may differ in a detail not shown here. Equal entries are not always repeated. Inconclusive results and toxic doses are left out. No stated cut-off is given here; in the data, active means T/C of 150% or more; inactive means T/C below 125%.
Tested on: L1210 leukemia ip in BDF1 mice, survival T/C
Experiment: NCI In Vivo Anticancer Drug Screen. Data for tumor model L1210 Leukemia (intraperitoneal) in B6D2F1 (BDF1) mice
Settings: endpoint: mean survival time, higher = longer survival
Summary of the method: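 Transplantable tumor model; survival measured in treated vs vehicle control mice. Value = treated/control.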

[1] = dose: 100.0 mg/kg/injection, schedule: Q01DX001 (ip), vehicle: Klucel (hydroxypropylcellulose) (HPC)
[2] = dose: 200.0 mg/kg/injection, schedule: Q01DX001 (ip), vehicle: Klucel (hydroxypropylcellulose) (HPC)
[3] = dose: 400.0 mg/kg/injection, schedule: Q01DX001 (ip), vehicle: Klucel (hydroxypropylcellulose) (HPC)
[4] = dose: 100.0 mg/kg/injection, schedule: Q04DX002 (ip), vehicle: saline with Tween-80
[5] = dose: 200.0 mg/kg/injection, schedule: Q04DX002 (ip), vehicle: saline with Tween-80
[6] = dose: 400.0 mg/kg/injection, schedule: Q04DX002 (ip), vehicle: saline with Tween-80
[7] = dose: 100.0 mg/kg/injection, schedule: Q01DX009 (ip), vehicle: Klucel (hydroxypropylcellulose) (HPC)
[8] = dose: 200.0 mg/kg/injection, schedule: Q01DX009 (ip), vehicle: Klucel (hydroxypropylcellulose) (HPC)
[9] = dose: 400.0 mg/kg/injection, schedule: Q01DX009 (ip), vehicle: Klucel (hydroxypropylcellulose) (HPC)
[10] = dose: 100.0 mg/kg/injection, schedule: Q01DX001 (ip), vehicle: saline
[11] = dose: 200.0 mg/kg/injection, schedule: Q01DX001 (ip), vehicle: saline
[12] = dose: 50.0 mg/kg/injection, schedule: Q01DX009 (ip), vehicle: saline with Tween-80
[13] = dose: 100.0 mg/kg/injection, schedule: Q01DX009 (ip), vehicle: saline
[14] = dose: 100.0 mg/kg/injection, schedule: Q04DX003 (ip), vehicle: saline
[15] = dose: 200.0 mg/kg/injection, schedule: Q01DX009 (ip), vehicle: saline
[16] = dose: 200.0 mg/kg/injection, schedule: Q04DX003 (ip), vehicle: saline
[17] = dose: 400.0 mg/kg/injection, schedule: Q01DX009 (ip), vehicle: saline
[18] = dose: 400.0 mg/kg/injection, schedule: Q04DX003 (ip), vehicle: saline
[19] = dose: 50.0 mg/kg/injection, schedule: Q04DX003 (ip), vehicle: saline with Tween-80
[20] = dose: 100.0 mg/kg/injection, schedule: Q04DX003 (ip), vehicle: saline with Tween-80
[21] = dose: 200.0 mg/kg/injection, schedule: Q04DX003 (ip), vehicle: saline with Tween-80

Measured: T/C

CCCCCCCCCCCCCCCCNC(=S)Nc1ccc(C(=O)O)cc1
inactive: dose: 12.0 mg/kg/injection, schedule: Q04DX003 (ip), vehicle: Klucel (hydroxypropylcellulose) (HPC) 94 % of control | dose: 25.0 mg/kg/injection, schedule: Q04DX003 (ip), vehicle: Klucel (hydroxypropylcellulose) (HPC) 104 % of control | dose: 50.0 mg/kg/injection, schedule: Q04DX003 (ip), vehicle: Klucel (hydroxypropylcellulose) (HPC) 102 % of control | [1] 95 % of control | dose: 100.0 mg/kg/injection, schedule: Q04DX003 (ip), vehicle: Klucel (hydroxypropylcellulose) (HPC) 96 % of control | [2] 101 % of control | dose: 200.0 mg/kg/injection, schedule: Q04DX003 (ip), vehicle: Klucel (hydroxypropylcellulose) (HPC) 93 % of control | [3] 105 % of control

C/C=C(\CC)C(=O)O.[Pb]
inactive: dose: 50.0 mg/kg/injection, schedule: Q04DX002 (ip), vehicle: saline with Tween-80 97 % of control | [4] 96 % of control and 119 % of control | [5] 100 % of control | [6] 92 % of control

COc1ccc(N=C(C)CC(C)=O)cc1
inactive: [1] 101 % of control | [7] 108 % of control | [2] 103 % of control | [8] 97 % of control | [3] 101 % of control | [9] 102 % of control

NC(CCl)C(=O)O (centres undefined)
inactive: dose: 6.25 mg/kg/injection, schedule: Q01DX001 (ip), vehicle: saline 103 % of control | dose: 12.5 mg/kg/injection, schedule: Q01DX001 (ip), vehicle: saline 101 % of control | dose: 25.0 mg/kg/injection, schedule: Q01DX001 (ip), vehicle: saline 103 % of control | dose: 50.0 mg/kg/injection, schedule: Q01DX001 (ip), vehicle: saline 97 % of control | [10] 92 % of control | [11] 90 % of control

CCN(CC)CCCC(C)Nc1cc(C)nc2ccc(N(C)C)cc12 (centres undefined)
inactive: dose: 12.5 mg/kg/injection, schedule: Q01DX009 (ip), vehicle: saline with Tween-80 104 % of control | dose: 25.0 mg/kg/injection, schedule: Q01DX009 (ip), vehicle: saline with Tween-80 111 % of control | [12] 106 % of control

CC(=O)CCC(=O)OCCOC(=O)CCC(C)=O
inactive: [13] 98 % of control and 105 % of control | [14] 96 % of control and 104 % of control | [15] 93 % of control and 95 % of control | [16] 100 % of control | [17] 98 % of control and 104 % of control | [18] 100 % of control and 106 % of control

CN1C(=O)C2C3C=CC(C3)C2C1=O (centres undefined)
inactive: [1] 97 % of control | [7] 101 % of control | [2] 101 % of control | [8] 100 % of control | [3] 106 % of control | [9] 96 % of control

BrC#CC1CCCCC1
inactive: [14] 100 % of control | [16] 100 % of control

CC[PH+]1c2ccccc2-c2ccccc21.CC[PH+]1c2ccccc2-c2ccccc21.CC[PH+]1c2ccccc2-c2ccccc21.[Br][Ni][Br]
inactive: dose: 12.5 mg/kg/injection, schedule: Q04DX003 (ip), vehicle: saline with Tween-80 98 % of control | dose: 25.0 mg/kg/injection, schedule: Q04DX003 (ip), vehicle: saline with Tween-80 98 % of control | [19] 102 % of control

Cc1ccc(S(=O)(=O)OCC(C)([N+](=O)[O-])[N+](=O)[O-])cc1
inactive: [4] 94 % of control | [5] 97 % of control | [6] 101 % of control

O=C(c1ccccc1)C1(c2ccccc2)SC1(C(=O)c1ccccc1)c1ccccc1 (centres undefined)
inactive: [20] 92 % of control | [21] 91 % of control | dose: 400.0 mg/kg/injection, schedule: Q04DX003 (ip), vehicle: saline with Tween-80 87 % of control

CC1CN(c2ccccc2)CN1c1ccccc1 (centres undefined)
inactive: dose: 100.0 mg/kg/injection, schedule: Q04DX002 (sc), vehicle: olive oil, sesame oil, peanut oil 94 % of control | dose: 200.0 mg/kg/injection, schedule: Q04DX002 (sc), vehicle: olive oil, sesame oil, peanut oil 91 % of control | dose: 400.0 mg/kg/injection, schedule: Q04DX002 (sc), vehicle: olive oil, sesame oil, peanut oil 102 % of control

CC(C)c1ccc(/C=C(\C(=O)O)c2cccc3ccccc23)cc1
inactive: [7] 101 % of control

NC(=O)c1ncn[nH]1
inactive: [12] 113 % of control | [19] 104 % of control | dose: 100.0 mg/kg/injection, schedule: Q01DX009 (ip), vehicle: saline with Tween-80 108 % of control | [20] 110 % of control | dose: 200.0 mg/kg/injection, schedule: Q01DX009 (ip), vehicle: saline with Tween-80 120 % of control | [21] 106 % of control

Cc1ccc(S(=O)(=O)NC(CCC(=O)O)C(=O)O)cc1 (centres undefined)
inactive: [10] 91 % of control | [13] 93 % of control | [14] 108 % of control | [11] 102 % of control | [15] 100 % of control | [16] 103 % of control | [17] 88 % of control | [18] 106 % of control

O=C(CCCN1CCC(O)(c2ccc(Cl)cc2)CC1)c1ccc(F)cc1
inactive: dose: 1.25 mg/kg/injection, schedule: Q01DX009 (ip), vehicle: saline 90 % of control | dose: 2.5 mg/kg/injection, schedule: Q01DX009 (ip), vehicle: Klucel (hydroxypropylcellulose) (HPC) 92 % of control | dose: 2.5 mg/kg/injection, schedule: Q01DX009 (ip), vehicle: saline 100 % of control | dose: 2.5 mg/kg/injection, schedule: Q04DX003 (ip), vehicle: saline 114 % of control | dose: 5.0 mg/kg/injection, schedule: Q01DX009 (ip), vehicle: Klucel (hydroxypropylcellulose) (HPC) 95 % of control | dose: 5.0 mg/kg/injection, schedule: Q01DX009 (ip), vehicle: saline 113 % of control | dose: 5.0 mg/kg/injection, schedule: Q04DX003 (ip), vehicle: saline 101 % of control | dose: 10.0 mg/kg/injection, schedule: Q01DX009 (ip), vehicle: Klucel (hydroxypropylcellulose) (HPC) 100 % of control | dose: 10.0 mg/kg/injection, schedule: Q01DX009 (ip), vehicle: saline 121 % of control | dose: 10.0 mg/kg/injection, schedule: Q04DX003 (ip), vehicle: saline 124 % of control | dose: 20.0 mg/kg/injection, schedule: Q01DX009 (ip), vehicle: Klucel (hydroxypropylcellulose) (HPC) 111 % of control | dose: 20.0 mg/kg/injection, schedule: Q01DX009 (ip), vehicle: saline 90 % of control | dose: 20.0 mg/kg/injection, schedule: Q04DX003 (ip), vehicle: saline 101 % of control | dose: 40.0 mg/kg/injection, schedule: Q01DX009 (ip), vehicle: saline 90 % of control | dose: 40.0 mg/kg/injection, schedule: Q04DX003 (ip), vehicle: saline 101 % of control | dose: 80.0 mg/kg/injection, schedule: Q04DX003 (ip), vehicle: Klucel (hydroxypropylcellulose) (HPC) 110 % of control | dose: 160.0 mg/kg/injection, schedule: Q04DX003 (ip), vehicle: Klucel (hydroxypropylcellulose) (HPC) 106 % of control

N#CC1(Nc2cccc(C(F)(F)F)c2)CCCCC1
inactive: [7] 94 % of control | [8] 105 % of control | [9] 100 % of control

Clc1ccnc2c1ccc1c(Cl)ccnc12
inactive: dose: 50.0 mg/kg/injection, schedule: Q01DX001 (ip), vehicle: carboxymethylcellulose (CMC) 88 % of control

— PubChem BioAssay AID248 (DTP/NCI, 2004)
